According to article PMC12655426 (Pharmaceutics, 2025):

Assays:
human MRP2 = molecular target: T1, human MRP2 (Homo sapiens, UniProt Q92887); test: OTA uptake in MRP2-expressing Sf9 membrane vesicles; type: in vitro ADME; conditions: 10 μM OTA, 5 min
T1 construct: purchased BioIVT; host or cells: Sf9 cell-derived membrane vesicles
Procedure: The following experiments were conducted at BioIVT.

OAT3 = molecular target: T2, OAT3 (Homo sapiens, UniProt Q8TCC7); test: OTA uptake in OAT3-overexpressing HEK293 cells (screen and kinetics)
T2 sequence (Q8TCC7 1-542): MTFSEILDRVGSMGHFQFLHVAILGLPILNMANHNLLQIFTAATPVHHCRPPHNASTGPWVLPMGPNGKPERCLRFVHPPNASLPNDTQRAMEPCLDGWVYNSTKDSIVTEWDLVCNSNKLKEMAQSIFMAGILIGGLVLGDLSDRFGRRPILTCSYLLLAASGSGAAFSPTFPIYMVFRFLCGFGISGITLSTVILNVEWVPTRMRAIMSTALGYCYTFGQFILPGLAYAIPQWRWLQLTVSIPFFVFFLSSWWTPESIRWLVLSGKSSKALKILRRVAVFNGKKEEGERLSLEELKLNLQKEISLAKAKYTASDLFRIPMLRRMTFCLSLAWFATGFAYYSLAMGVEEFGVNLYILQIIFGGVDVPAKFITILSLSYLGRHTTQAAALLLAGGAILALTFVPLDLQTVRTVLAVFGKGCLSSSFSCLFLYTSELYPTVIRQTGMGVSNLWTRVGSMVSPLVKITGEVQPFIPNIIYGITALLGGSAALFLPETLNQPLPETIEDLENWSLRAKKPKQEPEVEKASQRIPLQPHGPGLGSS
Procedure: The following experiments were conducted at the University of Washington. Mock HEK293 cells and transporter-overexpressing HEK293 cells (i.e., OAT1–4, OCT2, MATE1/2K, OCTN1, OATP1A2), mock CHO cells, and OCTN2-overexpressing CHO cells were plated in 96 well plates coated with 0.05 mg/mL of poly-D-lysine in 50 μL DPBS at a density of 800,000 cells/mL and grown until reaching over 90% of confluence. […] For uptake experiments in MATE1- and MATE2-K-expressing HEK293 cells, the pH of the incubation buffer was adjusted to 8.0 to facilitate substrate uptake. For uptake experiments in OATP1A2-expressing and OAT4-expressing HEK293 cells, the pH of the incubation buffer was adjusted to 6.5 to mimic pH of the urinary filtrate, as these are apical transporters. The incubation buffer was kept at pH 7.4 for all other transporters. […] Uptake was quenched by removing the substrates/inhibitors and washing the cells 3 times with 200 μL of ice-cold HBSS++. […] The precipitated protein was allowed to dry and subsequently solubilized overnight in 1M NaOH, neutralized with 1 M HCl the next day, and measured by BCA assay.
(§1) All cellular-based assays were conducted in technical triplicate across three independent experiments. […] This cutoff was defined a priori. […] Jnet was then treated as the initial uptake rate, and Km and Vmax values were obtained by fitting the Michaelis–Menten equation to the substrate-concentration data as described above. Intrinsic clearance (CLint) was then calculated by the formula, CLint=Vmax/Km using Vmax and Km values as calculated above. […] At steady-state, the mass balance for intracellular concentrations assuming symmetric passive permeabilities (Papical = Pbasal, taken as Papp from mock assays) and apical efflux gives: Ccell= Cbasal/1+ ke/Pa where Cbasal is the concentration in the basal chamber and ke is the first-order elimination with respect to BCRP. Because the asymmetric efflux ratio ERa is defined as: ERa=1+ ke/Pa

[1] = single fasted volunteer, microdose of radioactive OTA in ethanol, within 8 h, not absolute bioavailability; cited from earlier work
MRP2 = conditions: read-out: IC50, inhibition of MRP2-mediated p-aminohippurate efflux; cited from earlier work
hPEPT (PEPT1, PEPT2) = test: OTA uptake in PEPT1- and PEPT2-expressing MDCK-II cells; type: in vitro ADME, human; conditions: 10 μM OTA, pH 6.5, 5 min
human BCRP = molecular target: T3, human BCRP (Homo sapiens, UniProt Q9UNQ0); test: Bidirectional transport of OTA in BCRP-expressing MDCK-II cells; conditions: net B to A flux, 1.56 to 100 μM OTA
T3 sequence (Q9UNQ0 1-655): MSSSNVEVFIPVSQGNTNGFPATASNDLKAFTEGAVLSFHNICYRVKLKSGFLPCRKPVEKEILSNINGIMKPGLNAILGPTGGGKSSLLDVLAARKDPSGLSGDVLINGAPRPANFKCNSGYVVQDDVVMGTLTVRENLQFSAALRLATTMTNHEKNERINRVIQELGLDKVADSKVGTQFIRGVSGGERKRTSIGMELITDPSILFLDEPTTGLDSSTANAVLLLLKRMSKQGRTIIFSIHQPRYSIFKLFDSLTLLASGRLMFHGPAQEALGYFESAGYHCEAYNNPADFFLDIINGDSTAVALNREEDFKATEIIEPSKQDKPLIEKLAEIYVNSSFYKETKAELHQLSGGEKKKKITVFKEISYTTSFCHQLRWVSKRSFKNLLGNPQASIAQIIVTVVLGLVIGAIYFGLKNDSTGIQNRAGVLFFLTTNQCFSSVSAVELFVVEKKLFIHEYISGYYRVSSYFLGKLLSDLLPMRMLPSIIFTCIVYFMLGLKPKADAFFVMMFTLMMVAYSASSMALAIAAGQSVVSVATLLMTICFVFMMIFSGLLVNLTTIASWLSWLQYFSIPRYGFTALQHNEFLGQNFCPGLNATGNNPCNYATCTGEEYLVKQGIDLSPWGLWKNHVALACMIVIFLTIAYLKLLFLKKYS
Procedure: as §1

T1 sequence (Q92887 whole entry): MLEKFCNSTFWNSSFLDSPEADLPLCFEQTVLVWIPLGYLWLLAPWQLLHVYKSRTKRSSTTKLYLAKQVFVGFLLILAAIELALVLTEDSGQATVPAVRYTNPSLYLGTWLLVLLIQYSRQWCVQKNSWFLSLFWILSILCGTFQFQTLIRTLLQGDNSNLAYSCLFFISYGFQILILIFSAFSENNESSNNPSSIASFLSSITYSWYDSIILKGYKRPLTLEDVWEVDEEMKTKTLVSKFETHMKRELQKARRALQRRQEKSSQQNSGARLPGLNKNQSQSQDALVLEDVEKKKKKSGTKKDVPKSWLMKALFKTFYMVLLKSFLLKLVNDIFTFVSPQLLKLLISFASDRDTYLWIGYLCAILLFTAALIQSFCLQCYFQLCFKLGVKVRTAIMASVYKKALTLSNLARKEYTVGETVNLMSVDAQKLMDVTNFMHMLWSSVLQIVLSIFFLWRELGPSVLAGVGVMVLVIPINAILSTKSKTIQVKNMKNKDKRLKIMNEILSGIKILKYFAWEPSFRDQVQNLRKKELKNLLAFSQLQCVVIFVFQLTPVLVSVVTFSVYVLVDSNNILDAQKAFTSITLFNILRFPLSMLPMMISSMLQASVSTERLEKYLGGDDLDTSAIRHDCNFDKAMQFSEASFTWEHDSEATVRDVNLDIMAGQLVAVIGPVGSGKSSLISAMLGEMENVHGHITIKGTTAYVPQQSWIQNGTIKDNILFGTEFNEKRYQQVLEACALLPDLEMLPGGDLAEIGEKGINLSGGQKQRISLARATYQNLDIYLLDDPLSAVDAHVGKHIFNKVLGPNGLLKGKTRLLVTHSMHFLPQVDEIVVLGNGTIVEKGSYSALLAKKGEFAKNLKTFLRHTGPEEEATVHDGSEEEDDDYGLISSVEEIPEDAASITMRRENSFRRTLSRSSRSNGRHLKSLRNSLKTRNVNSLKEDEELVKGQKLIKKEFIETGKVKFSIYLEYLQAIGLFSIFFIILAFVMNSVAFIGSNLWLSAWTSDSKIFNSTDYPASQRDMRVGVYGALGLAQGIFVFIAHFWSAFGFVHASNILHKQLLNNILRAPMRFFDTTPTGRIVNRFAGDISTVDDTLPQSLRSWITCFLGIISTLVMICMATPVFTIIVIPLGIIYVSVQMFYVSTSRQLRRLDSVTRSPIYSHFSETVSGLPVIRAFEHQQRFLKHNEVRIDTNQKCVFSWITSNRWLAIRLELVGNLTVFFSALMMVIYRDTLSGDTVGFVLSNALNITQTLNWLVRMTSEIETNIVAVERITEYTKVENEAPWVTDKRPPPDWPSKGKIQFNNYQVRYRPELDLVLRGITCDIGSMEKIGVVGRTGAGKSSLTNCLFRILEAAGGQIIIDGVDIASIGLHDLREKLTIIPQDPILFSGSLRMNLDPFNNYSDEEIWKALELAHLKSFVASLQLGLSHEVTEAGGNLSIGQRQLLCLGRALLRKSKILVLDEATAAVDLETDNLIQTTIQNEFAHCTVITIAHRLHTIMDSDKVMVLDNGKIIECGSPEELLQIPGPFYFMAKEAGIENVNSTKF

Question: Which “MRP2-mediated OTA transport” value (human MRP2) does the source give for `C[C@@H]1Cc2c(Cl)cc(C(=O)N[C@@H](Cc3ccccc3)C(=O)O)c(O)c2C(=O)O1` [OTA, Ochratoxin A] here?
Answer: no MRP2-mediated OTA transport

Question: What about the Vmax (OAT3; HEK293, 5 min, 37 °C, pH 7.4, mock-corrected) of the same compound?
Answer: 141.4 ± 30.3 pmol/mg/min

Question: And the microsomal CLint (OAT3; human, other cell line, pH 7.4)?
Answer: 56.1 ± 6.3 µL/min/mg

Question: And the Km at 5 min (OAT3; human, pH 7.4)?
Answer: 2.58 ± 0.83 µM

Question: And the “percentage of administered radioactivity detected in plasma” value [1]?
Answer: ~ 93%

Question: And the IC50 (MRP2)?
Answer: 58 µM

Question: And the “hPEPT-mediated transport of OTA” value (hPEPT (PEPT1, PEPT2))?
Answer: did not observe any hPEPT-mediated transport

Question: And the “apparent CLint estimated by the slope of the linearly fitted line” value (human BCRP)?
Answer: 0.29 ± 0.03 µL/min/cm^2
